Test results as given in PubChem BioAssay AID1963962 (Molecular Pharmacology Branch, DTP, NCI, 2024).

Tested on: 967376-340-R-J2-PDC multicell spheroid viability
Experiment: Anticancer human tumor 967376-340-R-J2-PDC patient-derived colon adenocarcinoma cell line growth inhibition [PI3K]
Details: for IC50: curve of first compound; for viability, T/C: stronger effect = lower value
Source text: Combinatorial screen of targeted agents with the PI3K inhibitors inavolisib, alpelisib, duvelisib, and copanlisib in multi-cell type tumor spheroids
A high-throughput screen of multi-cell type tumor spheroids was designed to identify active combinations of targeted small molecules and PI3K pathway inhibitors. Complex spheroids include a stromal component modeled by human endothelial cells (HUVEC) and fibroblasts modeled by human mesenchymal stem cells (MSCs). The concentration ranges selected for each drug and investigational agent were based upon clinically achievable concentrations if the clinical Cmax of the agent was known.
Compounds. The drugs and investigational agents: inavolisib (NSC800729), alpelisib (NSC765974), duvelisib (NSC772469), copanlisib (NSC816437), ipatasertib (NSC767898), afuresertib (NSC778305), talazoparib (NSC767125), sapanisertib (NSC764658), selumetinib (NSC741078), tovorafenib (DAY101, NSC766906), vemurafenib (NSC761431), ravoxertinib (NSC781343), sotorasib (NSC818433), MRTX1133 (NSC 836407), abemaciclib (NSC 768073), palbociclib (NSC758247), venetoclax (NSC 766270), SY5609 (NSC837396), enzalutamide (NSC755605), and darolutamide (NSC825331), were obtained from the National Cancer Institute (NCI) Developmental Therapeutics Program Chemical Repository. The FDA-approved anticancer drug set is available from the NCI Developmental Therapeutics Program. […] The stock solutions were prepared in dimethyl sulfoxide (DMSO, Sigma-Aldrich, St. Louis, MO, cat. D2650) at 800-fold the tested concentration and stored at -70 degrees C prior to their use. All drugs and investigational agents were tested over a range starting from a high concentration at or near the clinical Cmax and decreasing in half-log increments. If the clinical Cmax for an agent had not been determined, the highest concentration tested was 10 microM.
Cell Culture. All cells were maintained in an incubator at 37 degrees C and 5% CO2 with 95% humidity. The PDC lines were cultured according to standard operating procedures established by the NCI PDMR (https://pdmr.cancer.gov/sops/default.htm). All PDCs were thawed and cultured in Matrigel-coated flasks prepared with a working solution of 1X Ham's F-12 nutrient mix, without supplementation (Invitrogen, Waltham, MA, cat. 11765054), 100 U/mL penicillin-streptomycin (Invitrogen, cat. 15140122), and 2.5% Matrigel (Corning Inc., Corning, NY, cat. 354248) for the first three passages. The 354836-022-R-J1-PDC, 475296-252-R-J1-PDC, and 997726-040-R-J2-PDC lines were cultured in 6A media, which includes advanced DMEM/F-12 (Thermo Fisher Scientific, cat. 12634028), 10 mM HEPES (Thermo Fisher Scientific, cat. 15630080), 1X GlutaMAX supplement (Thermo Fisher Scientific, cat. 35050061), 0.1 mg/mL primocin (InvivoGen, San Diego, CA, cat. ant-pm-2), 10% defined fetal bovine serum, heat inactivated (HyClone Laboratories Inc., Logan, UT, cat. SH30070.03HI), 50% L-WRN conditioned media (ATCC, cat. CRL-3276), 1.25 mM N-Acetyl-L-cysteine (Sigma-Aldrich, cat. A9165), 10 mM nicotinamide (Sigma-Aldrich, cat. N0636), 1X B-27 supplement (Thermo Fisher Scientific, cat. 17504044), 1X N-2 supplement (Thermo Fisher Scientific, cat. 17502048), and 10 microM Y-27632 dihydrochloride (Tocris Bioscience, Bristol, United Kingdom, cat. 1254). The 624824-186-R-J2-PDC line was cultured in 6C/Colon 1B media, which includes all 6A media components plus 50 ng/mL human EGF recombinant protein (Thermo Fisher Scientific, cat. PHG0311). […]

[1] = second compound 0.00316 µM, first compound 0.0316 µM
[2] = second compound 0.00316 µM, first compound 0.1 µM
[3] = second compound 0.00316 µM, first compound 0.316 µM
[4] = second compound 0.00316 µM, first compound 1 µM
[5] = second compound 0.01 µM, first compound 0.0316 µM
[6] = second compound 0.01 µM, first compound 0.1 µM
[7] = second compound 0.01 µM, first compound 0.316 µM
[8] = second compound 0.01 µM, first compound 1 µM
[9] = second compound 0.0316 µM, first compound 0.0316 µM
[10] = second compound 0.0316 µM, first compound 0.1 µM
[11] = second compound 0.0316 µM, first compound 0.316 µM
[12] = second compound 0.0316 µM, first compound 1 µM
[13] = second compound 0.1 µM, first compound 0.0316 µM
[14] = second compound 0.1 µM, first compound 0.1 µM
[15] = second compound 0.1 µM, first compound 0.316 µM
[16] = second compound 0.1 µM, first compound 1 µM
[17] = second compound 0.316 µM, first compound 0.0316 µM
[18] = second compound 0.316 µM, first compound 0.1 µM
[19] = second compound 0.316 µM, first compound 0.316 µM
[20] = second compound 0.316 µM, first compound 1 µM
[21] = second compound 1 µM, first compound 0.0316 µM
[22] = second compound 1 µM, first compound 0.1 µM
[23] = second compound 1 µM, first compound 0.316 µM
[24] = second compound 1 µM, first compound 1 µM
[25] = second compound 0.00316 µM, first compound 3.16 µM
[26] = second compound 0.00316 µM, first compound 10 µM
[27] = second compound 0.01 µM, first compound 3.16 µM
[28] = second compound 0.01 µM, first compound 10 µM
[29] = second compound 0.0316 µM, first compound 3.16 µM
[30] = second compound 0.0316 µM, first compound 10 µM
[31] = second compound 0.1 µM, first compound 3.16 µM
[32] = second compound 0.1 µM, first compound 10 µM
[33] = second compound 0.316 µM, first compound 3.16 µM
[34] = second compound 0.316 µM, first compound 10 µM
[35] = second compound 1 µM, first compound 3.16 µM
[36] = second compound 1 µM, first compound 10 µM
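Also: spheroids exposed to agents for 7 days before read-out.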
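For viability, T/C in this document: luminescence used as surrogate of cell viability.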

For CCN1CCN(Cc2ccc(Nc3ncc(F)c(-c4cc(F)c5nc(C)n(C(C)C)c5c4)n3)nc2)CC1 + CC(Nc1ccc2c(c1)OCCn1cc(N3C(=O)OCC3C(F)F)nc1-2)C(N)=O, the IC50 (second compound 0.00316 µM) was over 1 µM, the IC50 (second compound 0.01 µM) was over 1 µM and the IC50 (second compound 0.0316 µM) was over 1 µM. The IC50 (second compound 0.1 µM) was 0.793 µM, the IC50 (second compound 0.316 µM) was 0.109 µM and the IC50 (second compound 1 µM) was 0.0551 µM. It also gave a viability, T/C (second compound 0.00316 µM, first compound 0.00316 µM) of 94.2%, a viability, T/C (second compound 0.00316 µM, first compound 0.01 µM) of 73.2% and a viability, T/C [1] of 86.9%. For the same molecule, the viability, T/C [2] was 75.2%, the viability, T/C [3] was 80.9% and the viability, T/C [4] was 70.5%. The viability, T/C (second compound 0.01 µM, first compound 0.00316 µM) was 94.9%, the viability, T/C (second compound 0.01 µM, first compound 0.01 µM) was 74.8% and the viability, T/C [5] was 71.4%. For the same molecule, the viability, T/C [6] was 93.2%, the viability, T/C [7] was 69.5% and the viability, T/C [8] was 67.7%. For the same molecule, the viability, T/C (second compound 0.0316 µM, first compound 0.00316 µM) was 77.6%, the viability, T/C (second compound 0.0316 µM, first compound 0.01 µM) was 81.3% and the viability, T/C [9] was 79.2%. For the same molecule, the viability, T/C [10] was 86.8%, the viability, T/C [11] was 63.4% and the viability, T/C [12] was 52.3%. For the same molecule, the viability, T/C (second compound 0.1 µM, first compound 0.00316 µM) was 62.7%, the viability, T/C (second compound 0.1 µM, first compound 0.01 µM) was 64.6% and the viability, T/C [13] was 69.8%. For the same molecule, the viability, T/C [14] was 65.1%, the viability, T/C [15] was 47.3% and the viability, T/C [16] was 51.3%. The viability, T/C (second compound 0.316 µM, first compound 0.00316 µM) was 62.7%, the viability, T/C (second compound 0.316 µM, first compound 0.01 µM) was 54.9% and the viability, T/C [17] was 57.4%. It also gave a viability, T/C [18] of 47.5%, a viability, T/C [19] of 48.6% and a viability, T/C [20] of 42.5%. The viability, T/C (second compound 1 µM, first compound 0.00316 µM) was 59.4%, the viability, T/C (second compound 1 µM, first compound 0.01 µM) was 52.2% and the viability, T/C [21] was 54.2%. For the same molecule, the viability, T/C [22] was 49.3%, the viability, T/C [23] was 35.5% and the viability, T/C [24] was 26%.
With Cn1ncc(Cl)c1-c1cc(C(=O)NC(CN)Cc2cccc(F)c2)sc1Cl (stereo unspecified) + CC(Nc1ccc2c(c1)OCCn1cc(N3C(=O)OCC3C(F)F)nc1-2)C(N)=O the IC50 (second compound 0.00316 µM) was over 10 µM, the IC50 (second compound 0.01 µM) was over 10 µM and the IC50 (second compound 0.0316 µM) was over 10 µM. The IC50 (second compound 0.1 µM) was over 10 µM, the IC50 (second compound 0.316 µM) was over 10 µM and the IC50 (second compound 1 µM) was 4.19 µM. For the same molecule, the viability, T/C [1] was 102%, the viability, T/C [2] was 94.4% and the viability, T/C [3] was 86.6%. It also gave a viability, T/C [4] of 75%, a viability, T/C [25] of 71% and a viability, T/C [26] of 61.3%. It also gave a viability, T/C [5] of 92.3%, a viability, T/C [6] of 93.3% and a viability, T/C [7] of 90.8%. It also gave a viability, T/C [8] of 67.1%, a viability, T/C [27] of 67.8% and a viability, T/C [28] of 71.3%. It also gave a viability, T/C [9] of 91.2%, a viability, T/C [10] of 98% and a viability, T/C [11] of 75.2%. It also gave a viability, T/C [12] of 83.2%, a viability, T/C [29] of 67.4% and a viability, T/C [30] of 55.8%. It also gave a viability, T/C [13] of 83.5%, a viability, T/C [14] of 72.5% and a viability, T/C [15] of 87.7%. It also gave a viability, T/C [16] of 65%, a viability, T/C [31] of 55.8% and a viability, T/C [32] of 57.8%. For the same molecule, the viability, T/C [17] was 68%, the viability, T/C [18] was 66.9% and the viability, T/C [19] was 59.2%. For the same molecule, the viability, T/C [20] was 67.8%, the viability, T/C [33] was 59.9% and the viability, T/C [34] was 45.9%. It also gave a viability, T/C [21] of 63.1%, a viability, T/C [22] of 49.3% and a viability, T/C [23] of 53.9%. It also gave a viability, T/C [24] of 68.1%, a viability, T/C [35] of 53.9% and a viability, T/C [36] of 38.5%.
Work on Cn1nccc1Nc1nccc(-c2ccn(C(CO)c3ccc(Cl)c(F)c3)c(=O)c2)n1 (stereo unspecified) + CC(Nc1ccc2c(c1)OCCn1cc(N3C(=O)OCC3C(F)F)nc1-2)C(N)=O yielded an IC50 (second compound 0.00316 µM) of over 10 µM, an IC50 (second compound 0.01 µM) of over 10 µM and an IC50 (second compound 0.0316 µM) of over 10 µM. It also gave an IC50 (second compound 0.1 µM) of over 10 µM, an IC50 (second compound 0.316 µM) of over 10 µM and an IC50 (second compound 1 µM) of 0.0465 µM. For the same molecule, the viability, T/C [1] was 100%, the viability, T/C [2] was 89.8% and the viability, T/C [3] was 105%. It also gave a viability, T/C [4] of 71.5%, a viability, T/C [25] of 108% and a viability, T/C [26] of 101%. The viability, T/C [5] was 107%, the viability, T/C [6] was 67.5% and the viability, T/C [7] was 81%. It also gave a viability, T/C [8] of 82.2%, a viability, T/C [27] of 91.8% and a viability, T/C [28] of 102%. The viability, T/C [9] was 80.8%, the viability, T/C [10] was 101% and the viability, T/C [11] was 76.8%. It also gave a viability, T/C [12] of 92%, a viability, T/C [29] of 70.9% and a viability, T/C [30] of 85.3%. The viability, T/C [13] was 72.3%, the viability, T/C [14] was 65.6% and the viability, T/C [15] was 79.3%. For the same molecule, the viability, T/C [16] was 78.4%, the viability, T/C [31] was 72.9% and the viability, T/C [32] was 70.3%. The viability, T/C [17] was 62.5%, the viability, T/C [18] was 68% and the viability, T/C [19] was 60.2%. The viability, T/C [20] was 78%, the viability, T/C [33] was 63.1% and the viability, T/C [34] was 46.6%. It also gave a viability, T/C [21] of 49.6%, a viability, T/C [22] of 48.3% and a viability, T/C [23] of 48.4%. For the same molecule, the viability, T/C [24] was 41.6%, the viability, T/C [35] was 32.3% and the viability, T/C [36] was 31.2%.
